Measured values: patent US20120277269A1 (priority 2008, published 2012)
Values joined by “and” are separate entries in the source; they are usually repeats but may differ in a detail not shown here. Equal values may be shown once. Read-outs that look alike come from different tables or passages of the source.

Columns and labels:
[1] = test system: patients with atrial fibrillation at risk of stroke; parameters: Stroke, Ischemic or Unspecified, RR: dose or concentration left out as unconfirmed
Text: Median follow-up was 2.0 years and the primary outcome was stroke or systemic embolism.
Patients were recruited from 951 clinical centers in 44 countries. In brief, patients were eligible if they had atrial fibrillation documented on electrocardiogram at screening or within 6 months; and at least one of the following: prior stroke or transient ischemic attack; left ventricular ejection fraction less than 40%; New York Heart Association heart failure symptoms of Class 2 or greater within 6 months; age at least 75 years; or age at least 65 years with diabetes mellitus, hypertension or coronary artery disease.
The time in therapeutic range was calculated by the method of Rosendaal (Rosendaal F R, et al., A method to determine the optimal intensity of oral anticoagulant therapy, Thromb Haemost, 1993, 69:236-239), excluding INRs from the first week and after discontinuations. […] Concomitant use of aspirin (less than 100 mg/day) or other antiplatelet agents was allowed.
Liver function testing was performed monthly during the first year of follow-up.
The primary study outcome was stroke or systemic embolism. The primary safety outcome was major hemorrhage. Secondary outcomes were stroke, systemic embolism and death. Other outcomes were myocardial infarction, pulmonary embolism, transient ischemic attacks, and hospitalizations. The primary net benefit-risk outcome was the composite of stroke, systemic embolism, pulmonary embolism, myocardial infarction, death or major hemorrhage. Stroke was defined as sudden onset of focal neurological deficit consistent with the territory of a major cerebral artery and categorized as ischemic, hemorrhagic or unspecified. Hemorrhagic transformation of ischemic stroke was not considered as hemorrhagic stroke. Intracranial hemorrhage included hemorrhagic stroke and sub-dural or sub-arachnoid hemorrhage. Systemic embolism was an acute vascular occlusion of an extremity or organ documented by imaging, surgery or autopsy. Major bleeding was defined as a reduction in hemoglobin level of at least […] or transfusion of at least 2 units of blood or symptomatic bleeding in a critical area or organ. Life-threatening bleeding was a subset of major bleeding that included fatal bleeding, symptomatic intracranial bleeding, bleeding with hemoglobin decrease of more than […] or requiring transfusion of more than 4 units of blood or requiring inotropic agents or necessitating surgery. All other bleeding was considered minor.
All primary and secondary outcome events were blindly and doubly adjudicated. An international team of adjudicators reviewed documents in local languages after blinding; or documents were translated by a independent group and blinded centrally. All transient ischemic attacks were reviewed to ensure that strokes had not been missed. To detect possible unreported events, symptom questionnaires were regularly administered to patients, and adverse events and hospitalization reports were scrutinized for unreported primary or secondary outcomes.
If maximum of the two p-values was greater than 0.025, the minimum of the two p-values must be less than 0.0125, one-sided, to claim statistical significance. All analyses were based on intention-to-treat.

[2] = human, in vivo
Experimental: Ezekowitz M D, et al., Dabigatran with or without concomitant aspirin compared with warfarin alone in patients with nonvalvular atrial fibrillation (PETRO study), Am. […] The PETRO study is described below.
Peak levels are seen within 2-3 hours of oral administration. […] Steady-state is reached within 2-3 days with a twice daily regimen. […] The remainder undergoes conjugation with glucuronic acid to form acylglucuronides which are excreted primarily in the bile.

[3] = test system: activated partial thromboplastin time (aPTT), ecarin clotting time, and thrombin clotting time; assay: Anticoagulant pharmacodynamics (clotting times)
[4] = test system: patients with atrial fibrillation
Experimental: The PETRO-Ex study was conducted in 52 centers in the United States, Denmark, The Netherlands, and Sweden.
PETRO-Ex began while the PETRO study was ongoing and investigators were initially kept blinded to patient treatment group until PETRO was completed.
Data were summarized descriptively; no hypothesis was to be tested. Events were analyzed on the basis of the treatment at onset. Incidences were reported as number of patients with events as well as normalized to 100 patient-years on the respective treatment.
Patients who completed PETRO on 50 mg b.i.d. were switched to 150 mg q.d. upon entry in the PETRO-Ex study (N=93 patients). […] Patients who were down titrated to 50 mg q.d. based on a glomerular filtration rate ≦50 mL/min during PETRO were excluded from the long-term trial; patients down-titrated in other dose levels remained on the q.d. treatment at that dose.
The total exposure reflects both trials, PETRO and PETRO-Ex, together.

[5] = test system: patients with chronic atrial fibrillation; assay: PETRO phase 2 12-week dose finding study; format: in vivo, human
Text: Primary endpoints were bleeding events and changes in D-dimer. […] Minor bleeding was dose related.

[6] = test system: Patients with Non-Valvular Atrial Fibrillation; conditions: in vivo; cited from earlier work
[7] = individual patients with LFT abnormalities, one table line per patient (age c0, sex c1), # = with concomitant Bilirubin elevation to >2xULN

[H]/N=C(/N)c1ccc(NCc2nc3cc(C(=O)N(CCC(=O)O)c4ccccn4)ccc3n2C)cc1 [Dabigatran]
Stroke, Ischemic or Unspecified, RR [1]: 0.68
Stroke, systemic embolism, pulmonary embolism, myocardial infarction death or major bleed (net benefit), RR ([1]; Dabigatran 110 mg vs. Warfarin): 0.92
Stroke, systemic embolism, pulmonary embolism, myocardial infarction death or major bleed (net benefit), RR ([1]; Dabigatran 150 mg vs. 110 mg): 0.98
Stroke, systemic embolism, pulmonary embolism, myocardial infarction death or major bleed (net benefit), RR ([1]; Dabigatran 150 mg vs. Warfarin): 0.90
Stroke, RR ([1]; Dabigatran 180 mg vs. 110 mg): 0.70
Hepatotoxicity in serial measurement of liver function tests ([1]; human, in vivo): no evidence of hepatotoxicity
Time to steady-state [2]: 2 to 3 days
Effect on aPTT, ecarin clotting time, and thrombin clotting time [3]: dose dependent prolongation
LFT abnormality ALT/ULN [4, 7]: >5x (4×) and >5x^# (2×) and >3x (5×) and >3x^#
LFT abnormality AST/ULN [4, 7]: >5x^# (4×) and >5x (4×) and >3x (5×)

CCCCCCOC(=O)NC(=N)c1ccc(NCc2nc3cc(C(=O)N(CCC(=O)OCC)c4ccccn4)ccc3n2C)cc1 [Dabigatran etexilate, 1-methyl-2-[N-[4-(N-n-hexyloxycarbonylamidino)phenyl]aminomethyl]benzimidazol-5-ylcarboxylic ac id-N-(2-pyridyl)-N-(2-ethoxycarbonylethyl)amides]
Major bleeding events, number ([5]; 300 mg b.i.d. plus ASA groups, 12 weeks): Four
Elevated transaminases >3× upper limit of normal (ULN) ([5]; all dabigatran etexilate-treated patients): 0.9%
Minor bleeding ([5]; in vivo): dose related
Oral bioavailability, average ([2]; po): 6.5%
Time to peak levels ([2]; po): 2 to 3 h
Onset of anticoagulant effect after dosing [3]: within one hour
ALT or AST >2xULN, number of patients ([4]; 50 mg b.i.d.): 0
ALT or AST >3xULN and Bili >2xULN within 30 days, number of patients ([4]; 50 mg b.i.d.): 0
ALT or AST >3xULN, number of patients ([4]; 50 mg b.i.d.): 0
ALT or AST >5xULN, number of patients ([4]; 50 mg b.i.d.): 0
Adverse Events leading to premature discontinuation, number of patients ([4]; 50 mg b.i.d.): 5
MI, number of patients ([4]; 50 mg b.i.d.): 0
Major Bleeds with aspirin, number of patients ([4]; 50 mg b.i.d.): 0
Major Bleeds without aspirin, number of patients ([4]; 50 mg b.i.d.): 0
Major Bleeds, number of patients ([4]; 50 mg b.i.d.): 0
Other MACE, number of patients ([4]; 50 mg b.i.d.): 2
Stroke and Systemic Thromboembolism, number of patients ([4]; 50 mg b.i.d.): 3
TIA, number of patients ([4]; 50 mg b.i.d.): 0
ALT or AST >2xULN, number of patients ([4]; 50 mg q.d.): 0
ALT or AST >3xULN and Bili >2xULN within 30 days, number of patients ([4]; 50 mg q.d.): 0
ALT or AST >3xULN, number of patients ([4]; 50 mg q.d.): 0
ALT or AST >5xULN, number of patients ([4]; 50 mg q.d.): 0
Adverse Events leading to premature discontinuation, number of patients ([4]; 50 mg q.d.): 0
MI, number of patients ([4]; 50 mg q.d.): 0
Major Bleeds with aspirin, number of patients ([4]; 50 mg q.d.): 0
Major Bleeds without aspirin, number of patients ([4]; 50 mg q.d.): 0
Major Bleeds, number of patients ([4]; 50 mg q.d.): 0
Other MACE, number of patients ([4]; 50 mg q.d.): 0
Stroke and Systemic Thromboembolism, number of patients ([4]; 50 mg q.d.): 0
TIA, number of patients ([4]; 50 mg q.d.): 0
ALT or AST >2xULN, number of patients ([4]; 150 mg b.i.d.): 21
ALT or AST >3xULN and Bili >2xULN within 30 days, number of patients ([4]; 150 mg b.i.d.): 3
ALT or AST >3xULN, number of patients ([4]; 150 mg b.i.d.): 13
ALT or AST >5xULN, number of patients ([4]; 150 mg b.i.d.): 7
Adverse Events leading to premature discontinuation, number of patients ([4]; 150 mg b.i.d.): 67
MI, number of patients ([4]; 150 mg b.i.d.): 6
Major Bleeds with aspirin, number of patients ([4]; 150 mg b.i.d.): 11
Major Bleeds without aspirin, number of patients ([4]; 150 mg b.i.d.): 18
Major Bleeds without aspirin, rate ([4]; 150 mg b.i.d.): 3.2 % per year
Major Bleeds, number of patients ([4]; 150 mg b.i.d.): 29
Other MACE, number of patients ([4]; 150 mg b.i.d.): 7
Stroke and Systemic Thromboembolism, number of patients ([4]; 150 mg b.i.d.): 7
TIA, number of patients ([4]; 150 mg b.i.d.): 1
ALT or AST >2xULN, number of patients ([4]; 150 mg q.d.): 2
ALT or AST >3xULN and Bili >2xULN within 30 days, number of patients ([4]; 150 mg q.d.): 0
ALT or AST >3xULN, number of patients ([4]; 150 mg q.d.): 0
ALT or AST >5xULN, number of patients ([4]; 150 mg q.d.): 0
Adverse Events leading to premature discontinuation, number of patients ([4]; 150 mg q.d.): 8
MI, number of patients ([4]; 150 mg q.d.): 0
Major Bleeds with aspirin, number of patients ([4]; 150 mg q.d.): 0
Major Bleeds without aspirin, number of patients ([4]; 150 mg q.d.): 3
Major Bleeds without aspirin, rate ([4]; 150 mg q.d.): 6.5 % per year
Major Bleeds, number of patients ([4]; 150 mg q.d.): 3
Other MACE, number of patients ([4]; 150 mg q.d.): 0
Stroke and Systemic Thromboembolism, number of patients ([4]; 150 mg q.d.): 3
TIA, number of patients ([4]; 150 mg q.d.): 0
ALT or AST >2xULN, number of patients ([4]; 300 mg b.i.d.): 4
ALT or AST >3xULN and Bili >2xULN within 30 days, number of patients ([4]; 300 mg b.i.d.): 0
ALT or AST >3xULN, number of patients ([4]; 300 mg b.i.d.): 2
ALT or AST >5xULN, number of patients ([4]; 300 mg b.i.d.): 1
Adverse Events leading to premature discontinuation, number of patients ([4]; 300 mg b.i.d.): 21
MI, number of patients ([4]; 300 mg b.i.d.): 0
Major Bleeds with aspirin, number of patients ([4]; 300 mg b.i.d.): 6
Major Bleeds without aspirin, number of patients ([4]; 300 mg b.i.d.): 4
Major Bleeds without aspirin, rate ([4]; 300 mg b.i.d.): 6.3 % per year
Major Bleeds, number of patients ([4]; 300 mg b.i.d.): 10
Other MACE, number of patients ([4]; 300 mg b.i.d.): 1
Stroke and Systemic Thromboembolism, number of patients ([4]; 300 mg b.i.d.): 1
TIA, number of patients ([4]; 300 mg b.i.d.): 0
ALT or AST >2xULN, number of patients ([4]; 300 mg q.d.): 3
ALT or AST >3xULN and Bili >2xULN within 30 days, number of patients ([4]; 300 mg q.d.): 1
ALT or AST >3xULN, number of patients ([4]; 300 mg q.d.): 3
ALT or AST >5xULN, number of patients ([4]; 300 mg q.d.): 3
Adverse Events leading to premature discontinuation, number of patients ([4]; 300 mg q.d.): 19
MI, number of patients ([4]; 300 mg q.d.): 1
Major Bleeds with aspirin, number of patients ([4]; 300 mg q.d.): 2
Major Bleeds without aspirin, number of patients ([4]; 300 mg q.d.): 3
Major Bleeds without aspirin, rate ([4]; 300 mg q.d.): 2.1 % per year
Major Bleeds, number of patients ([4]; 300 mg q.d.): 5
Other MACE, number of patients ([4]; 300 mg q.d.): 1
Stroke and Systemic Thromboembolism, number of patients ([4]; 300 mg q.d.): 5
TIA, number of patients ([4]; 300 mg q.d.): 0
Serious adverse events: cardiac disorders, number of patients ([4]; PETRO-Ex): 80
Serious adverse events: gastrointestinal disorders, number of patients ([4]; PETRO-Ex): 28
Serious adverse events: infections, number of patients ([4]; PETRO-Ex): 34
Serious adverse events: nervous system disorders, number of patients ([4]; PETRO-Ex): 33
Serious adverse events, number of patients ([4]; PETRO-Ex, including bleeding and thrombotic events): 184
ALT or AST >2xULN, number of patients ([4]; Total, all doses): 30
ALT or AST >3xULN and Bili >2xULN within 30 days, number of patients ([4]; Total, all doses): 4
ALT or AST >3xULN, number of patients ([4]; Total, all doses): 18
ALT or AST >5xULN, number of patients ([4]; Total, all doses): 11
Adverse Events leading to premature discontinuation, number of patients ([4]; Total, all doses): 120
MI, number of patients ([4]; Total, all doses): 7
Major Bleeds with aspirin, number of patients ([4]; Total, all doses): 19
Major Bleeds without aspirin, number of patients ([4]; Total, all doses): 26
Major Bleeds without aspirin, rate ([4]; Total, all doses): 3.2 % per year
Major Bleeds, number of patients ([4]; Total, all doses): 44
Other MACE, number of patients ([4]; Total, all doses): 11
Stroke and Systemic Thromboembolism, number of patients ([4]; Total, all doses): 20
TIA, number of patients ([4]; Total, all doses): 1
ALT or AST >3xULN and Bili >2xULN within 30 days, number of patients ([4]; Total, all doses, listed as dabigatran etexilate): four

CCOC(=O)CN[C@@H](C(=O)N1CC[C@H]1C(=O)NCc1ccc(/C(N)=N\O)cc1)C1CCCCC1 [Ximelagatran]
Hepatotoxicity [6]: found to be hepatotoxic
